Tests used:
Type in all cases: functional
Rattus norvegicus [1] = assay: (§1) Cardioprotective activity in adrenaline-induced MI Rattus norvegicus Sprague-Dawley (rat) model assessed as effect on P-duration at 5 mg/kg, po for 15 days challenged with adrenaline on day 14 and day 15 measured after 24 hr post second adrenaline injection by ECG analysis (reference value: 0.01136 +/- 0.0044 sec)
Rattus norvegicus [2] = assay: Cardioprotective activity in adrenaline-induced MI Rattus norvegicus Sprague-Dawley (rat) model assessed as decrease in heart rate at 5 mg/kg, po for 15 days challenged with adrenaline on day 14 and day 15 measured after 24 hr post second adrenaline injection (reference value: 422.76 +/- 6.158 bpm)
Rattus norvegicus [3] = assay: as §1, with “decrease in ST interval” for “effect on P-duration”, “0.0829” for “0.01136”, “0.0024” for “0.0044”
Rattus norvegicus [4] = assay: as §1, with “decrease in QT interval prolongation” for “effect on P-duration”, “0.08205” for “0.01136”, “0.0023” for “0.0044”
Rattus norvegicus [5] = assay: as §1, with “increase in R-R interval” for “effect on P-duration”, “0.135” for “0.01136”, “0.0176” for “0.0044”

SMILES | Time (Rattus norvegicus [1]) [s] | Activity (Rattus norvegicus [2]) [bpm] | Time (Rattus norvegicus [3]) [s] | Time (Rattus norvegicus [4]) [s] | Time (Rattus norvegicus [5]) [s]
COC(=O)C1=C(C)NC(C)=C(C(=O)OC)C1c1ccccc1[N+](=O)[O-] [NIFEDIPINE] | 0.01815 | 278.5 | 0.0455 | 0.06101 | 0.2146
CCOC(=O)C1=C(C)NC(SC)=NC1c1ccc([N+](=O)[O-])cc1 (stereo not given) | 0.0166 | 315.766 | 0.05879 | 0.06664 | 0.1852
COC(=O)C1=C(C)NC(SC)=NC1c1ccc(Cl)cc1 (stereo not given) | 0.01358 | 382.03 | 0.0545 | 0.03879 | 0.1533

From ChEMBL document CHEMBL3045924, “Synthesis, molecular docking, and cardioprotective activity of 2-methylthio-1,4-dihydropyrimidines” (2012)
